Experimental data as given in US20260158009A1 (GENZYME CORPORATION, priority 2023, published 2026).

Key:
[1] = biological target: T1, hRIPK1 (aa 1-375) fusion protein (Homo sapiens, UniProt Q13546); assay: ADP-Glo kinase assay: catalytic activity of RIPK1 (autophosphorylation, conversion of ATP to ADP); format: biochemical
T1 construct: hRIPK1 (aa 1-375) fusion protein
T1 sequence (Q13546 1-375): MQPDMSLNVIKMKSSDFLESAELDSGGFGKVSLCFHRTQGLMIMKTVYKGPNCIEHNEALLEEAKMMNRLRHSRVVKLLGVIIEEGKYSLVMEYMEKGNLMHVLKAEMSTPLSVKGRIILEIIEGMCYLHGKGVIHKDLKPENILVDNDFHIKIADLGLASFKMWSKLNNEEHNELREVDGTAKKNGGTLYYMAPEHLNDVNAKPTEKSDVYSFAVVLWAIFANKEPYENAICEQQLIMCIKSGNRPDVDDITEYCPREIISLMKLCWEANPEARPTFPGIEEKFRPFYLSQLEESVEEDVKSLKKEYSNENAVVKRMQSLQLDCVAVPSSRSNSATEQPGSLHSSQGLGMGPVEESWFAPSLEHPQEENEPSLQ
Procedure, shortened: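 The readout was ADP-Glo luminescence after a 240 min rt autophosphorylation reaction with 50 μM ATP, following 30 min preincubation of 3.6 μg/ml hRIPK1 (aa 1-375) fusion with compound at 33300-1.69 nM final in 1% DMSO. Values came from Levenberg-Marquardt nonlinear fits.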

U937 cells = assay: Cellular assay in U937 cells: activity of RIPK1 inhibitors on TNFα/zVAD.fmk-induced cell death (necroptosis), CellTiter 96 AQueous (MTS) readout; format: cell-based; settings: Homo sapiens, U-937
Procedure, shortened: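 Necroptosis was measured by viable-cell MTS reduction (4 h, absorbance 490 nm) after overnight (18–24 h) 37° C culture. Cell suspensions of U937 cells carried TNFα (100 ng/ml) plus zVAD.fmk (50 μM) before compound was added. A 10-point curve (10 μM–0.26 nM or 1 μM–0.07 nM) was run in duplicate, normalised to the control lacking TNFα/zVAD.fmk.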

| Structure (SMILES) | IC50 [1] [nM] | IC50 (U937 cells) [nM] |
| --- | --- | --- |
| Cc1ccc([C@@H]2CCON2C(=O)[C@H]2CC[C@H](Cc3cc(C)c4nnc(C)n4c3)CC2)cn1 [compound 365, trans-[4-(3,8-Dimethyl-[1,2,4]triazolo[4,3-a]pyridin-6-ylmethyl)-cyclohexyl]-[(S)-3-(6-methyl-pyridin-3-yl)-isoxazolidin-2-yl]-methanone] | 97 | 71 |
| O=C([C@H]1CC[C@H](Cc2ccc(C3(O)COC3)cc2)CC1)N1OCC[C@H]1c1cnccn1 [compound 352, trans-[4-[[4-(3-hydroxyoxetan-3-yl)phenyl]methyl]cyclohexyl]-[(3S)-3-pyrazin-2-yl-1,2-oxazolidin-2-yl]methanone] | 30 | 58 |
| O=C([C@H]1CC[C@H](Cc2cncnc2)CC1)N1OCC[C@H]1c1cnccn1 [compound 248, trans-[(3S)-3-pyrazin-2-ylisoxazolidin-2-yl]-[4-(pyrimidin-5-ylmethyl)cyclohexyl]methanone] | 73 | 666 |
| O=c1oc2ccccc2n1C[C@H]1CC[C@H](C(=O)N2OCC[C@H]2c2cc(F)cc(F)c2)CC1 [compound 20, trans-3-((4-((S)-3-(3,5-difluorophenyl)isoxazolidine-2-carbonyl)cyclohexyl)methyl)benzo[d]oxazol-2(3H)-one] | 20 | 5 |
| Cc1nccn1-c1cc(F)cc(C[C@H]2CC[C@H](C(=O)N3OCC[C@H]3c3cnccn3)CC2)c1 [compound 209, trans-[4-[[3-fluoro-5-(2-methylimidazol-1-yl)phenyl]methyl]cyclohexyl]-[(3S)-3-pyrazin-2-ylisoxazolidin-2-yl]methanone] | 22 | 54 |
| N#Cc1cc(F)c2cn(C[C@H]3CC[C@H](C(=O)N4OCC[C@H]4c4cc(F)cc(F)c4)CC3)nc2c1 [compound 35, trans-2-((4-((S)-3-(3,5-difluorophenyl)isoxazolidine-2-carbonyl)cyclohexyl)methyl)-4-fluoro-2H-indazole-6-carbonitrile] | 41 | 48 |
| Cc1ccc([C@@H]2CCON2C(=O)C23CCC(Cc4ccc(C)c(C(N)=O)c4)(CC2)CC3)cn1 [compound 272, 2-methyl-5-[[4-[(3S)-3-(6-methyl-3-pyridyl)isoxazolidine-2-carbonyl]-1-bicyclo[2.2.2]octanyl]methyl]benzamide] | 29 | 206 |
| Cc1cnc([C@@H]2CCON2C(=O)[C@H]2CC[C@H](Cc3cc(C)ncc3F)CC2)cn1 [compound 384, trans-[4-[(5-fluoro-2-methylpyridin-4-yl)methyl]cyclohexyl]-[(3S)-3-(5-methylpyrazin-2-yl)-1,2-oxazolidin-2-yl]methanone] | 28 | 7 |
| COc1ccc2c(ccn2C[C@H]2CC[C@H](C(=O)N3OCC[C@H]3c3cc(F)cc(C#N)c3)CC2)n1 [compound 120, trans-3-fluoro-5-[(3S)-2-[4-[(5-methoxypyrrolo[3,2-b]pyridin-1-yl)methyl]cyclohexanecarbonyl]isoxazolidin-3-yl]benzonitrile] | 41 | 6 |
| Cc1cc(C)n(C[C@H]2CC[C@H](C(=O)N3OCC[C@H]3c3cc(F)cc(F)c3)CC2)n1 [compound 118, trans-((S)-3-(3,5-difluorophenyl)isoxazolidin-2-yl)(4-((3,5-dimethyl-1H-pyrazol-1-yl)methyl)cyclohexyl)methanone] | 23 | 30 |
| Cc1cn2cc(C[C@H]3CC[C@H](C(=O)N4OCC[C@H]4c4csc(C)n4)CC3)cc(F)c2n1 [compound 370, trans-[4-(8-Fluoro-2-methyl-imidazo[1,2-a]pyridin-6-ylmethyl)-cyclohexyl]-[(S)-3-(2-methyl-thiazol-4-yl)-isoxazolidin-2-yl]-methanone] | 34 | 21 |
| N#Cc1cc(F)cc([C@@H]2CCON2C(=O)[C@H]2CC[C@H](Cn3cc4cc(C#N)ccc4n3)CC2)c1 [compound 59, trans-2-((4-((S)-3-(3-cyano-5-fluorophenyl)isoxazolidine-2-carbonyl)cyclohexyl)methyl)-2H-indazole-5-carbonitrile] | 30 | 166 |
| Cc1nn(C[C@H]2CC[C@H](C(=O)N3OCC[C@H]3c3cc(F)cc(C#N)c3)CC2)c2cc(C#N)c(F)cc12 [compound 85, trans-1-((4-((S)-3-(3-cyano-5-fluorophenyl)isoxazolidine-2-carbonyl)cyclohexyl)methyl)-5-fluoro-3-methyl-1H-indazole-6-carbonitrile] | 21 | 3 |
| Cc1ncn(C[C@H]2CC[C@H](C(=O)N3OCC[C@H]3c3cc(F)cc(C#N)c3)CC2)c1C [compound 82, trans-3-((S)-2-(4-((4,5-dimethyl-1H-imidazol-1-yl)methyl)cyclohexane-1-carbonyl)isoxazolidin-3-yl)-5-fluorobenzonitrile] | 67 | 136 |
| Cc1c(C#N)cncc1C[C@H]1CC[C@H](C(=O)N2OCC[C@H]2c2cc(F)cc(C#N)c2)CC1 [compound 276, trans-5-[[4-[(3S)-3-(3-cyano-5-fluoro-phenyl)isoxazolidine-2-carbonyl]cyclohexyl]methyl]-4-methyl-pyridine-3-carbonitrile] | 20 | 9 |
| Cc1nccn1-c1cc(F)cc(C[C@H]2CC[C@H](C(=O)N3OCC[C@H]3c3cc(F)cc(F)c3)CC2)c1 [compound 208, trans-[(3S)-3-(3,5-difluorophenyl)isoxazolidin-2-yl]-[4-[[3-fluoro-5-(2-methylimidazol-1-yl)phenyl]methyl]cyclohexyl]methanone] | 24 | 12 |

Now those with a lower IC50 [1], led by results:

| IC50 [1] [nM] | Structure (SMILES) | IC50 (U937 cells) [nM] |
| --- | --- | --- |
| 19 | Cc1ncc(C#N)cc1C[C@H]1CC[C@H](C(=O)N2OCC[C@H]2c2cc(F)cc(C#N)c2)CC1 [compound 277, trans-5-[[4-[(3S)-3-(3-cyano-5-fluoro-phenyl)isoxazolidine-2-carbonyl]cyclohexyl]methyl]-6-methyl-pyridine-3-carbonitrile] | 4 |
| 18 | Cc1cc([C@@H]2CCON2C(=O)[C@H]2CC[C@H](Cn3ncc4ccc(C#N)cc43)CC2)co1 [compound 43, trans-1-((4-((S)-3-(5-methylfuran-3-yl)isoxazolidine-2-carbonyl)cyclohexyl)methyl)-1H-indazole-6-carbonitrile] | 1 |
| 18 | Cc1nc([C@@H]2CCON2C(=O)[C@H]2CC[C@H](Cn3ncc4ncc(C#N)cc43)CC2)cs1 [compound 199, trans-1-[[4-[(3S)-3-(2-methylthiazol-4-yl)isoxazolidine-2-carbonyl]cyclohexyl]methyl]pyrazolo[4,3-b]pyridine-6-carbonitrile] | 51 |
| 17 | N#Cc1cc(F)cc([C@@H]2CCON2C(=O)[C@H]2CC[C@H](Cc3cnccn3)CC2)c1 [compound 245, trans-3-fluoro-5-[(3S)-2-[4-(pyrazin-2-ylmethyl)cyclohexanecarbonyl]isoxazolidin-3-yl]benzonitrile] | 16 |
| 16 | O=C1NCc2ccc(C[C@H]3CC[C@H](C(=O)N4OCC[C@H]4c4cc(F)cc(F)c4)CC3)cc21 [compound 156, trans-6-[[4-[(3S)-3-(3,5-difluorophenyl)isoxazolidine-2-carbonyl]cyclohexyl]methyl]isoindolin-1-one] | 6 |
| 15 | Cc1nc2c(C)cc(C[C@H]3CC[C@H](C(=O)N4OCC[C@H]4c4cncc(F)c4)CC3)cn2n1 [compound 331, trans-[4-[(2,8-dimethyl-[1,2,4]triazolo[1,5-a]pyridin-6-yl)methyl]cyclohexyl]-[(3S)-3-(5-fluoropyridin-3-yl)-1,2-oxazolidin-2-yl]methanone] | 20 |
| 14 | CNC(=O)c1ccc(F)c(C[C@H]2CC[C@H](C(=O)N3OCC[C@H]3c3cnccn3)CC2)c1 [compound 175, trans-4-fluoro-N-methyl-3-[[4-[(3S)-3-pyrazin-2-ylisoxazolidine-2-carbonyl]cyclohexyl]methyl]benzamide] | 7 |
| 12 | Cc1cc(C[C@H]2CC[C@H](C(=O)N3OCC[C@H]3c3cnc(C)c(F)c3)CC2)c(C)cn1 [compound 332, trans-[4-[(2,5-dimethylpyridin-4-yl)methyl]cyclohexyl]-[(3S)-3-(5-fluoro-6-methylpyridin-3-yl)-1,2-oxazolidin-2-yl]methanone] | 3 |
| 10 | N#Cc1cncc([C@@H]2CCON2C(=O)[C@H]2CC[C@H](Cc3cc(F)cc(CO)c3)CC2)c1 [compound 257, trans-5-[(3S)-2-[4-[[3-fluoro-5-(hydroxymethyl)phenyl]methyl]cyclohexanecarbonyl]isoxazolidin-3-yl]pyridine-3-carbonitrile] | 2 |
| 1 | Cc1ncc(C[C@H]2CC[C@H](C(=O)N3OCC[C@H]3c3cc(F)c(C)c(C#N)c3)CC2)cc1C#N [compound 286, trans-5-[[4-[(3S)-3-(3-cyano-5-fluoro-4-methyl-phenyl)isoxazolidine-2-carbonyl]cyclohexyl]methyl]-2-methyl-pyridine-3-carbonitrile] | 1 |
